Experimental data taken from publication PMC5818060 (Journal of Cell Science, 2018).
Ends that are not written are not given here. Peptide text beside a SMILES is read from it. * marks the point of attachment. Biotin = O=C1N[C@H]2[C@H](CS[C@H]2CCCCC(=O)*)N1

What was measured:
[1] = system: DDX3X-stimulated CK1ε (CK1εΔC); test: In vitro radioactive kinase assay, DDX3X-stimulated CK1ε activity; type: biochemical, human; conditions: 0.3 µM peptide; recombinant DDX3X and CK1εΔC; CK1εΔC alone set to 1; n=3
Procedure: (§1) Kinase assays were carried out essentially as described ([Cruciat et al., 2013]). For kinase assays, full-length DDX3X protein was expressed and purified from HEK293T cells as described for the ATPase assay. Deletion constructs were purified from E. coli. The eluted proteins were visualized using Coomassie Blue and the intensity of the protein bands was measured using ImageJ. The amounts used for kinase assays were estimated based on this staining. Where indicated, dsRNA was premixed with proteins at room temperature (RT) for 15 min before subjecting samples to radioactive kinase assays. The CK1 substrate peptide […] for the kinase assay and samples was analyzed using p81 phosphocellulose (Biomol) as described ([Zhai et al., 1992]). 0.3 µM CK1δ/ε-derived and control peptides were used ([Schacherl et al., 2015]). For mass spectrometric analyses DDX3X helicase core (His-DDX3X^168-582) as well as the C-terminal helicase domain (His-DDX3X^414-582) were in vitro phosphorylated by CK1ε. Also, reactions without addition of kinase were performed and analyzed in order to correct for false-positive results. Mass spectrometry data acquisition and analysis of trypsin-digested samples were performed at the Core Unit Mass Spectrometry and Proteomics (Ulm University) essentially as described in [Meng et al. (2016)].

[2] = system: DDX3X^414-582 (C-terminal helicase domain); test: Biolayer interferometry (BLItz); type: binding, human; conditions: biotin-peptide 100 µM loaded on streptavidin chip; DDX3X^414-582 250 µM; 50 mM Tris-HCl pH 7.5, 10 mM NaCl; 60 s association/dissociation; three recordings
Procedure: Biolayer interferometry was measured on the BLItz system (Pall ForteBIO LLC). High Precision Streptavidin biosensor chips were loaded three times with 100 µM biotin-coupled CK1 peptides in 50 mM Tris-HCl (pH 7.5), 10 mM NaCl for 30 s, followed by a step to block free biotin binding sites with 10 µM biocytin. Association and dissociation times of DDX3X^414-582 (250 µM) were fixed at 60 s. Binding and dissociation curves were recorded three times.

[3] = system: CK1ε; test: In vitro radioactive kinase assay, CK1ε activity itself (no DDX3X stimulation); type: biochemical, human; conditions: 0.3 µM peptide; n=3
Procedure: as §1

[4] = biological target: T1, His-DDX3X^414-582 (Homo sapiens, UniProt O00571); test: Direct-binding ELISA of biotinylated CK1 peptides on coated His-DDX3X^414-582; conditions: 1 µg/well biotinylated peptide, 2.5 h, room temperature; HRP-streptavidin/ABTS, 405 nm; data normalized to δ-141 = 100%; n=3
T1 construct: contained 10 µM His-DDX3X^414-582; His; made in house; host or cells: E. coli Rosetta2 (pET28a)
T1 sequence (O00571 414-582): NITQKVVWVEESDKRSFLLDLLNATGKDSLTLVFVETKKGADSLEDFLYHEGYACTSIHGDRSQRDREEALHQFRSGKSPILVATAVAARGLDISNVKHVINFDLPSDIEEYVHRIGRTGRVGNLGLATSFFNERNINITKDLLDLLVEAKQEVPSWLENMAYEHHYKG
Source text: According to the amino acid sequences of the N-terminal and the kinase domain of human CK1δ (UniProt entry P48730), 30 CK1δ-derived peptides were generated. In order to investigate the effects of sequence-specific differences in the sequence of CK1ε (UniProt entry P49674) compared with CK1δ, seven additional CK1ε-derived peptides were generated (Fig. S2). Each peptide consists of 15 amino acids with the first and last five amino acids always overlapping the previous and the following peptide, respectively. At the N-terminus the peptides were coupled to biotin via a four amino acid spacer sequence (SGSG). For peptide position and sequence information see Fig. S2. All peptides were pre-dissolved in DMSO (final concentration of 12.5% DMSO in the peptide stock).
His-DDX3X^414-582 protein fragment was coated onto 96-well Nunc MaxiSorp plates (NUNC, Denmark) at a final concentration of 0.01 µg/µl in 100 mM sodium carbonate buffer (pH 9.6) at 4°C overnight. Unspecific binding sites were blocked with 5% FCS in PBS. Biotinylated CK1δ- and CK1ε-derived peptides (1 µg/well) were added and incubated for 2.5 h at room temperature. DMSO (0.35%) and water were used as negative controls. Detection of the bound biotinylated peptides was performed by incubation with HRP-streptavidin (1:8000 in 0.5% FCS in PBS). Finally, plates were incubated with ABTS detection reagent [50 mM potassium phosphate buffer, pH 5.7, 5% ABTS solution (1 mg/ml), 0.05% H2O2]. Absorption was measured at 405 nm after incubation for 40 min.

[5] = biological target: T1, His-DDX3X^414-582; test: Fluorescence thermal shift (FTS) assay; type: binding; conditions: 20 µM peptide, 10 µM His-DDX3X^414-582, 50 mM HEPES pH 8, SYPRO-Orange
Procedure: FTS reactions were performed in a total volume of 20 µl in 50 mM HEPES (pH 8) and contained 10 µM His-DDX3X^414-582, a final concentration of 20 µM of each indicated CK1δ- or CK1ε-derived peptide, as well as 10×SYPRO-Orange (Invitrogen). DMSO (0.35%) and water were used as controls. Measurements were performed in a LightCycler 480 device for real-time PCR (Roche) according to the manufacturer's instructions. Respective protein melting temperatures were calculated using the protein-melting evaluation software supplied by Roche.

[6] = system: endogenous CK1 / CK1 sensor in HEK293T cells; test: CK1 FRET biosensor, microplate reader FRET/CFP ratio; type: cell-based, human; conditions: HEK293T with CK1 sensor; for effect of transfected peptide on FRET/CFP ratio (endogenous CK1 activity): peptide transfected (Metafectene), analyzed 1.5 h after peptide transfection, n=3; for size of reduction of CK1 biosensor activity relative to CK1-specific small-molecule inhibitors or DDX3X siRNA: transfected peptide
Procedure: HEK293T cells were seeded at a density of 20,000 cells/well on 96-well black microplates (PS, μClear, clear bottom, chimney well, Greiner No. 655090). Transfection was performed as described above. Unless indicated otherwise, the respective cell populations were transfected with 50-100 ng CK1 FRET biosensor, 100 ng regulator (i.e. N-Flag DDX3X) and 1-10 ng kinase (i.e. N-Flag CK1ε). Either empty pCS2 N-Flag vector or luciferase were used to transfect the same amount of DNA in every well. Generally, the different samples were run in triplicate for each individual experiment. Owing to the varying values for the FRET/CFP ratios based on transfection efficiency, cell density and the time point of analysis, we always set the FRET/CFP ratio of cells only transfected with the CK1 sensor to 1 in order to compare individual experiments. Importantly, the individual figures with the CK1 sensor represent only experiments performed on the same 96-well plate with the same cell density, transfection efficiency and time point.
Where applicable, the small-molecule CK1 inhibitor D4476 (BioVision) was added to the cells 2-4 h prior to the analysis. For each triplicate the respective volume of D4476 (in DMSO) was added together with 1 μl Fugene HD (Promega) to 60 μl serum-free medium. The solution was mixed, incubated for 15 min and added to the cells. […] In the corresponding controls an equal amount of DMSO instead of the inhibitor was added to the medium. Analysis was performed 48-60 h after transfection on an Infinite M1000 PRO microplate reader (Tecan) by exciting CFP with a wavelength of 433 nm and measuring the resulting emission at 460-600 nm in 2 nm increments. Fluorometric spectra were background subtracted with spectra recorded from wells with non-transfected cells. Resulting FRET/CFP ratios were calculated by dividing the intensity values at the respective peaks (478 nm for CFP, 528 nm for YFP) and analyzed essentially as described ([Fritz et al., 2013]). Where indicated, CK1δ/ε-derived peptides were transfected into cells using Metafectene (Biontex) 1 hour before measurements.

| Molecule | effect of peptide on DDX3X stimulation of CK1ε kinase activity [1] | binding to C-terminal helicase domain of DDX3X (BLItz) [2] | effect of peptide on CK1ε kinase activity itself [3] | Binding to His-DDX3X^414-582 (ELISA) [4] | Tm shift / binding by FTS, in words [5] | effect of transfected peptide on FRET/CFP ratio (endogenous CK1 activity) [6] | size of reduction of CK1 biosensor activity relative to CK1-specific small-molecule inhibitors or DDX3X siRNA [6] |
| --- | --- | --- | --- | --- | --- | --- | --- |
| CC[C@H](C)[C@H](NC(=O)[C@H](CCCCN)NC(=O)[C@H](CCCNC(=N)N)NC(=O)CNC(=O)[C@H](CC(C)C)NC(=O)[C@H](CCCNC(=N)N)NC(=O)[C@H](Cc1ccc(O)cc1)NC(=O)[C@H](CCCNC(=N)N)NC(=O)[C@H](CC(N)=O)NC(=O)CNC(=O)[C@@H](NC(=O)[C@H](CCCNC(=N)N)NC(=O)[C@H](CC(C)C)NC(=O)[C@H](CCC(=O)O)NC(=O)[C@H](CCSC)NC(=O)CNC(=O)[C@H](CO)NC(=O)CNC(=O)[C@H](CO)NC(=O)CCCC[C@@H]1SC[C@@H]2NC(=O)N[C@@H]21)C(C)C)C(=O)O [δ-1] (HELM PEPTIDE1{[O=C1N[C@H]2[C@H](CS[C@H]2CCCCC(=O)[*:2])N1].S.G.S.G.M.E.L.R.V.G.N.R.Y.R.L.G.R.K.I}$$$$V2.0; C-terminus assumed) | impaired the stimulation of CK1ε kinase activity | strongly interacted with δ-1 | without affecting kinase activity itself | to a lesser extent | clearly demonstrated | reduced the FRET/CFP ratio | less pronounced |
| CC[C@H](C)[C@H](NC(=O)[C@H](CCCCN)NC(=O)[C@H](CO)NC(=O)[C@H](CCC(=O)O)NC(=O)[C@@H](NC(=O)[C@H](Cc1c[nH]cn1)NC(=O)[C@H](CC(C)C)NC(=O)[C@H](CCC(N)=O)NC(=O)[C@@H]1CCCN1C(=O)[C@H](Cc1c[nH]cn1)NC(=O)[C@H](CCCCN)NC(=O)[C@@H](NC(=O)[C@H](CCCCN)NC(=O)[C@@H](NC(=O)[C@H](CS)NC(=O)CNC(=O)[C@H](CO)NC(=O)CNC(=O)[C@H](CO)NC(=O)CCCC[C@@H]1SC[C@@H]2NC(=O)N[C@@H]21)C(C)C)[C@@H](C)O)[C@@H](C)CC)C(=O)O [δ-41] (HELM PEPTIDE1{[O=C1N[C@H]2[C@H](CS[C@H]2CCCCC(=O)[*:2])N1].S.G.S.G.C.V.K.T.K.H.P.Q.L.H.I.E.S.K.I}$$$$V2.0; C-terminus assumed) | impaired the stimulation of CK1ε kinase activity | no binding | without affecting kinase activity itself | to a lesser extent | clearly demonstrated | reduced the FRET/CFP ratio | less pronounced |
| biotin-SGSG-APPTPLTPTSHTANT [δ-341] |  |  |  | non-binding | did not cause Tm shifts | but not ε-1 or the negative control peptide δ-341, reduced the FRET/CFP ratio |  |
| δ-31: CK1δ-derived 15mer peptide (Biotin-SGSGAGEEVAIKLECVKTK) |  |  |  | strongest binding |  |  |  |
| δ-91: CK1δ-derived 15mer peptide (Biotin-SGSGDLFNFCSRKFSLKTV) |  |  |  | strongest binding |  |  |  |
| δ-101: CK1δ-derived 15mer peptide, negative control (Biotin-SGSGSLKTVLLLADQMISR) | did not interfere with the DDX3X stimulation |  |  | showed no binding | did not cause Tm shifts |  |  |
| δ-141: CK1δ-derived 15mer peptide (Biotin-SGSGKGNLVYIIDFGLAKK) |  |  |  | strongest binding |  |  |  |
| δ-231: CK1δ-derived 15mer peptide (Biotin-SGSGKKMSTPIEVLCKGYP) |  |  |  | to a lesser extent |  |  |  |
| ε-41: CK1ε-derived 15mer peptide (Biotin-SGSGCVKTKHPQLHIESKF) | impaired the stimulation of CK1ε kinase activity |  | without affecting kinase activity itself | to a lesser extent | clearly demonstrated | reduced the FRET/CFP ratio | less pronounced |
| ε-61: CK1ε-derived 15mer peptide (Biotin-SGSGGGVGIPSIKWCGAEG) |  |  |  | strongest binding |  |  |  |
| ε-241: CK1ε-derived 15mer peptide (Biotin-SGSGCKGYPSEFSTYLNFC; cysteine pairing not given here) |  |  |  | strongest binding |  |  |  |
